Measured values: PubChem BioAssay (NCI)
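Tested at 5 concentrations; 48 h exposure; 96-well plates; endpoints linearly interpolated, else capped at highest concentration. At the TGI there is no net growth.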

How the values were obtained:
Assay in all cases: DTP human tumour cell line panel, 48 h
786-0 renal = test system: 786-0 renal
A549 NSCLC = test system: A549 NSCLC
ACHN renal = test system: ACHN renal
BT-549 breast = test system: BT-549 breast
CAKI-1 renal = test system: CAKI-1 renal
CCRF-CEM leukemia = test system: CCRF-CEM leukemia
COLO 205 colon = test system: COLO 205 colon
DU-145 prostate = test system: DU-145 prostate
EKVX NSCLC = test system: EKVX NSCLC
HCT-116 colon = test system: HCT-116 colon
HCT-15 colon = test system: HCT-15 colon
HL-60(TB) leukemia = test system: HL-60(TB) leukemia
HOP-62 NSCLC = test system: HOP-62 NSCLC
HOP-92 NSCLC = test system: HOP-92 NSCLC
HS 578T breast = test system: HS 578T breast
HT29 colon = test system: HT29 colon
IGROV1 ovarian = test system: IGROV1 ovarian
K-562 leukemia = test system: K-562 leukemia
KM12 colon = test system: KM12 colon
LOX IMVI melanoma = test system: LOX IMVI melanoma
M14 melanoma = test system: M14 melanoma
MALME-3M melanoma = test system: MALME-3M melanoma
MDA-MB-231 breast = test system: MDA-MB-231 breast
MDA-MB-435 = test system: MDA-MB-435
MDA-N = test system: MDA-N
MOLT-4 leukemia = test system: MOLT-4 leukemia
NCI-H226 lung = test system: NCI-H226 lung
NCI-H23 lung = test system: NCI-H23 lung
NCI-H522 lung = test system: NCI-H522 lung
NCI/ADR-RES ovarian = test system: NCI/ADR-RES ovarian
OVCAR-3 ovarian = test system: OVCAR-3 ovarian
OVCAR-4 ovarian = test system: OVCAR-4 ovarian
OVCAR-5 ovarian = test system: OVCAR-5 ovarian
OVCAR-8 ovarian = test system: OVCAR-8 ovarian
PC-3 prostate = test system: PC-3 prostate
RPMI-8226 leukemia = test system: RPMI-8226 leukemia
RXF 393 renal = test system: RXF 393 renal
SF-268 CNS = test system: SF-268 CNS
SF-295 CNS = test system: SF-295 CNS
SK-MEL-2 melanoma = test system: SK-MEL-2 melanoma
SK-MEL-28 melanoma = test system: SK-MEL-28 melanoma
SK-MEL-5 melanoma = test system: SK-MEL-5 melanoma
SK-OV-3 ovarian = test system: SK-OV-3 ovarian
SN12C renal = test system: SN12C renal
SNB-19 CNS = test system: SNB-19 CNS
SNB-75 CNS = test system: SNB-75 CNS
SR leukemia = test system: SR leukemia
SW-620 colon = test system: SW-620 colon
T-47D breast = test system: T-47D breast
TK-10 renal = test system: TK-10 renal
U251 CNS = test system: U251 CNS
UACC-257 melanoma = test system: UACC-257 melanoma
UACC-62 melanoma = test system: UACC-62 melanoma
UO-31 renal = test system: UO-31 renal
A498 renal = test system: A498 renal
HCC-2998 colon = test system: HCC-2998 colon
MCF7 breast = test system: MCF7 breast
NCI-H460 lung = test system: NCI-H460 lung
SF-539 CNS = test system: SF-539 CNS

`N=C(c1ccc(-c2cn3cc(C(=N)N4CCCC4)ccc3n2)cc1)N1CCCC1` was tested, and the TGI (786-0 renal) was > 100 µM, the TGI (A549 NSCLC) was > 100 µM and the TGI (ACHN renal) was > 100 µM. The TGI (BT-549 breast) was > 100 µM, the TGI (CAKI-1 renal) was > 100 µM and the TGI (CCRF-CEM leukemia) was 83.1 µM. For the same compound, the TGI (COLO 205 colon) was > 100 µM, the TGI (DU-145 prostate) was > 100 µM and the TGI (EKVX NSCLC) was > 100 µM. The TGI (HCT-116 colon) was > 100 µM, the TGI (HCT-15 colon) was > 100 µM and the TGI (HL-60(TB) leukemia) was 0.158 µM. The TGI (HOP-62 NSCLC) was > 100 µM, the TGI (HOP-92 NSCLC) was > 100 µM and the TGI (HS 578T breast) was > 100 µM. For the same compound, the TGI (HT29 colon) was > 100 µM, the TGI (IGROV1 ovarian) was > 100 µM and the TGI (K-562 leukemia) was > 100 µM. The TGI (KM12 colon) was > 100 µM, the TGI (LOX IMVI melanoma) was > 100 µM and the TGI (M14 melanoma) was > 100 µM. For the same compound, the TGI (MALME-3M melanoma) was > 100 µM, the TGI (MDA-MB-231 breast) was > 100 µM and the TGI (MDA-MB-435) was > 100 µM. The TGI (MDA-N) was > 100 µM, the TGI (MOLT-4 leukemia) was > 100 µM and the TGI (NCI-H226 lung) was > 100 µM. For the same compound, the TGI (NCI-H23 lung) was > 100 µM, the TGI (NCI-H522 lung) was > 100 µM and the TGI (NCI/ADR-RES ovarian) was > 100 µM. The TGI (OVCAR-3 ovarian) was > 100 µM, the TGI (OVCAR-4 ovarian) was > 100 µM and the TGI (OVCAR-5 ovarian) was > 100 µM. The TGI (OVCAR-8 ovarian) was > 100 µM, the TGI (PC-3 prostate) was > 100 µM and the TGI (RPMI-8226 leukemia) was > 100 µM. For the same compound, the TGI (RXF 393 renal) was > 100 µM, the TGI (SF-268 CNS) was > 100 µM and the TGI (SF-295 CNS) was > 100 µM. For the same compound, the TGI (SK-MEL-2 melanoma) was > 100 µM, the TGI (SK-MEL-28 melanoma) was > 100 µM and the TGI (SK-MEL-5 melanoma) was > 100 µM. The TGI (SK-OV-3 ovarian) was > 100 µM, the TGI (SN12C renal) was > 100 µM and the TGI (SNB-19 CNS) was > 100 µM. The TGI (SNB-75 CNS) was > 100 µM, the TGI (SR leukemia) was > 100 µM and the TGI (SW-620 colon) was > 100 µM. The TGI (T-47D breast) was > 100 µM, the TGI (TK-10 renal) was > 100 µM and the TGI (U251 CNS) was > 100 µM. For the same compound, the TGI (UACC-257 melanoma) was > 100 µM, the TGI (UACC-62 melanoma) was > 100 µM and the TGI (UO-31 renal) was > 100 µM.
`OC(c1ccc(F)cc1)(c1ccc(F)cc1)C1CC1` was tested, and the TGI (786-0 renal) was > 100 µM, the TGI (A498 renal) was 77.8 µM and the TGI (A549 NSCLC) was 94.2 µM. The TGI (ACHN renal) was > 100 µM, the TGI (BT-549 breast) was 37.9 µM and the TGI (CAKI-1 renal) was 98.7 µM. For the same compound, the TGI (CCRF-CEM leukemia) was 95.8 µM, the TGI (COLO 205 colon) was 29.7 µM and the TGI (DU-145 prostate) was > 100 µM. For the same compound, the TGI (EKVX NSCLC) was 96.2 µM, the TGI (HCC-2998 colon) was 45.7 µM and the TGI (HCT-116 colon) was > 100 µM. The TGI (HCT-15 colon) was 68.2 µM, the TGI (HL-60(TB) leukemia) was 47.3 µM and the TGI (HOP-62 NSCLC) was > 100 µM. The TGI (HOP-92 NSCLC) was 97 µM, the TGI (HS 578T breast) was 82.6 µM and the TGI (HT29 colon) was 65.9 µM. The TGI (IGROV1 ovarian) was > 100 µM, the TGI (K-562 leukemia) was > 100 µM and the TGI (KM12 colon) was > 100 µM. It also gave a TGI (LOX IMVI melanoma) of 48.2 µM, a TGI (M14 melanoma) of 69.2 µM and a TGI (MALME-3M melanoma) of 65.2 µM. For the same compound, the TGI (MCF7 breast) was > 100 µM, the TGI (MDA-MB-231 breast) was > 100 µM and the TGI (MDA-MB-435) was 74.2 µM. The TGI (MDA-N) was 44.1 µM, the TGI (MOLT-4 leukemia) was 49.2 µM and the TGI (NCI-H226 lung) was 88.1 µM. For the same compound, the TGI (NCI-H23 lung) was 35.9 µM, the TGI (NCI-H460 lung) was > 100 µM and the TGI (NCI-H522 lung) was 52.9 µM. For the same compound, the TGI (NCI/ADR-RES ovarian) was 58 µM, the TGI (OVCAR-3 ovarian) was > 100 µM and the TGI (OVCAR-4 ovarian) was 79.2 µM. For the same compound, the TGI (OVCAR-5 ovarian) was > 100 µM, the TGI (OVCAR-8 ovarian) was > 100 µM and the TGI (PC-3 prostate) was 53.7 µM. The TGI (RPMI-8226 leukemia) was 59.2 µM, the TGI (RXF 393 renal) was 67.7 µM and the TGI (SF-268 CNS) was > 100 µM. The TGI (SF-295 CNS) was > 100 µM, the TGI (SF-539 CNS) was > 100 µM and the TGI (SK-MEL-2 melanoma) was 32.5 µM. The TGI (SK-MEL-28 melanoma) was > 100 µM, the TGI (SK-MEL-5 melanoma) was 30.2 µM and the TGI (SK-OV-3 ovarian) was > 100 µM. For the same compound, the TGI (SN12C renal) was 53.6 µM, the TGI (SNB-19 CNS) was > 100 µM and the TGI (SNB-75 CNS) was > 100 µM. The TGI (SW-620 colon) was > 100 µM, the TGI (T-47D breast) was > 100 µM and the TGI (TK-10 renal) was > 100 µM. The TGI (U251 CNS) was 59.6 µM, the TGI (UACC-257 melanoma) was 73 µM and the TGI (UACC-62 melanoma) was > 100 µM. It also gave a TGI (UO-31 renal) of 59.5 µM.
`Oc1cccc2cc(Cl)cnc12` was tested, and the TGI (786-0 renal) was > 100 µM, the TGI (A498 renal) was > 77.5 µM and the TGI (A549 NSCLC) was > 100 µM. For the same compound, the TGI (ACHN renal) was > 100 µM, the TGI (BT-549 breast) was > 100 µM and the TGI (CAKI-1 renal) was > 100 µM. The TGI (CCRF-CEM leukemia) was 15.5 µM, the TGI (COLO 205 colon) was > 100 µM and the TGI (DU-145 prostate) was > 100 µM. For the same compound, the TGI (EKVX NSCLC) was 98.9 µM, the TGI (HCC-2998 colon) was > 88.4 µM and the TGI (HCT-116 colon) was 37.8 µM. For the same compound, the TGI (HCT-15 colon) was > 100 µM, the TGI (HL-60(TB) leukemia) was 6.27 µM and the TGI (HOP-62 NSCLC) was > 100 µM. For the same compound, the TGI (HOP-92 NSCLC) was > 100 µM, the TGI (HS 578T breast) was > 83.5 µM and the TGI (HT29 colon) was > 69.2 µM. The TGI (IGROV1 ovarian) was > 83.4 µM, the TGI (K-562 leukemia) was 38.3 µM and the TGI (KM12 colon) was > 100 µM. For the same compound, the TGI (LOX IMVI melanoma) was > 64.1 µM, the TGI (M14 melanoma) was > 100 µM and the TGI (MALME-3M melanoma) was > 100 µM. The TGI (MCF7 breast) was > 100 µM, the TGI (MDA-MB-231 breast) was > 100 µM and the TGI (MDA-MB-435) was > 100 µM. The TGI (MDA-N) was > 100 µM, the TGI (MOLT-4 leukemia) was 27.4 µM and the TGI (NCI-H226 lung) was 97.5 µM. For the same compound, the TGI (NCI-H23 lung) was > 100 µM, the TGI (NCI-H460 lung) was > 100 µM and the TGI (NCI-H522 lung) was 22 µM. The TGI (NCI/ADR-RES ovarian) was 30.3 µM, the TGI (OVCAR-3 ovarian) was > 31.1 µM and the TGI (OVCAR-4 ovarian) was > 90.6 µM. For the same compound, the TGI (OVCAR-5 ovarian) was > 100 µM, the TGI (OVCAR-8 ovarian) was > 100 µM and the TGI (PC-3 prostate) was > 100 µM. The TGI (RPMI-8226 leukemia) was 61.6 µM, the TGI (RXF 393 renal) was > 79.6 µM and the TGI (SF-268 CNS) was > 100 µM. For the same compound, the TGI (SF-295 CNS) was > 100 µM, the TGI (SF-539 CNS) was 99 µM and the TGI (SK-MEL-2 melanoma) was > 100 µM. The TGI (SK-MEL-28 melanoma) was > 100 µM, the TGI (SK-MEL-5 melanoma) was 99.1 µM and the TGI (SK-OV-3 ovarian) was > 100 µM. For the same compound, the TGI (SN12C renal) was > 100 µM, the TGI (SNB-19 CNS) was > 100 µM and the TGI (SNB-75 CNS) was > 100 µM. For the same compound, the TGI (SW-620 colon) was > 100 µM, the TGI (T-47D breast) was > 68.5 µM and the TGI (TK-10 renal) was > 100 µM. The TGI (U251 CNS) was > 100 µM, the TGI (UACC-257 melanoma) was 81.7 µM and the TGI (UACC-62 melanoma) was > 44.7 µM. For the same compound, the TGI (UO-31 renal) was > 100 µM.
